Experimental data from patent publication US10345292B2, “Mammalian cell lines expressing functional nematode acetylcholine receptors and use thereof for high-throughput screening assays” (priority 2014, dated 2019).
Where two headings read alike, the source gives them in different places.

Tests used:
[1] = biological target: T1, Hco ACR-16/hRIC3 cell line (Haemonchus contortus, UniProt A9Y2C3); experiment: Ca2+ measurement in 384-well plate format on FDSS6000 (Fluo-4AM); format: cell-based
T1 sequence (A9Y2C3 1-494): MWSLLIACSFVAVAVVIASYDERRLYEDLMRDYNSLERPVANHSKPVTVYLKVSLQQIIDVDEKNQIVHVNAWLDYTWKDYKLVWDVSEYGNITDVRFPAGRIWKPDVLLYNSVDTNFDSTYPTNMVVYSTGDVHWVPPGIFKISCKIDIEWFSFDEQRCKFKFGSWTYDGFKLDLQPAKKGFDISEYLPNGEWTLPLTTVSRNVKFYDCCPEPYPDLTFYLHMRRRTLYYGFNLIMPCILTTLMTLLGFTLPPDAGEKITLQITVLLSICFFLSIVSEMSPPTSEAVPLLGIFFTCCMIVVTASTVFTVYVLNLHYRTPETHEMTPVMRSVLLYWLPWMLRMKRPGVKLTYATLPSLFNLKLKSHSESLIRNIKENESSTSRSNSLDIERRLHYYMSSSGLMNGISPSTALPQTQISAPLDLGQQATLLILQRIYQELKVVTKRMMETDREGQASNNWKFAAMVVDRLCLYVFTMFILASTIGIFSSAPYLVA
T1 sequence (Q7Z5B4 29-369 partner): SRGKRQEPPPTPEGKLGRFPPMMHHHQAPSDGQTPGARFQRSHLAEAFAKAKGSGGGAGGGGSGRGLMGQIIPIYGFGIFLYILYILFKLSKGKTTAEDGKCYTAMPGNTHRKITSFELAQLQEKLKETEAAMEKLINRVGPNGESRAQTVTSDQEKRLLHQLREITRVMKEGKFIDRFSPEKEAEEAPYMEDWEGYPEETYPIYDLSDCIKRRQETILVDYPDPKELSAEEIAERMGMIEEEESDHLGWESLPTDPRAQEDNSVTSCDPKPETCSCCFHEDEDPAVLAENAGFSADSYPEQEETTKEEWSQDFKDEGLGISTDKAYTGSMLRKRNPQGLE

[2] = biological target: T2, Hco ACR-16/Hco RIC3 stable cell line (Haemonchus contortus, UniProt A9Y2C3); experiment: as above; format: cell-based
T2 sequence (A9Y2C3 1-494): T1 sequence (A9Y2C3 1-494)

[3] = tested on: Dim ACR-16/Dim RIC3 stable cell line; experiment: as above; format: cell-based, Dirofilaria immitis
[4] = tested on: Hco ACR-16/hRIC3 stable cell line (Flp-In-293-Hco ACR-16 hRic3); format: cell-based, Haemonchus contortus; set-up: AUC, Mean / AUC, Median: unit not given beside the values

COc1cc(OC)c(NC(=O)Nc2cc(C)on2)cc1Cl [PNU-120956]
EC50 ([1]; four-parameter logistic fit, cell line not named in legend, read-out: XC50 from concentration-response curve (FIG. 8)): 160 nM | EC50 ([2]; Revealed by co-application of EC100 orthosteric reference agonist, read-out: EC50 value): 1400 nM | EC50 ([3]; allosteric modulator response curve, read-out: EC50 (FIG. 12)): 2400 nM

Clc1ccc(C2CC3CCC2N3)cn1 (stereo not drawn) [Epibatidine]
AUC, Mean [4]: 271.25 | AUC, Median [4]: 253.67 | Ratio, Mean [4]: 2.51 | Ratio, Median [4]: 2.15 | Rmax, Mean [4]: 2.62 | Rmax, Median [4]: 2.34 | Rmin, Mean [4]: 1.02 | Rmin, Median [4]: 1.04 | EC50 [1]: 6 nM | Signal amplitude with 10 μM PNU120596 + 300 nM epibatidine application ([1]; 24 h @ 37° C.): 1503 RFU | Signal amplitude with 10 μM PNU120596 + 300 nM epibatidine application ([1]; 24 h @ 37° C. + 24 h @ 30° C.): 2160 RFU | EC50 [2]: 5 nM | Signal amplitude with 10 μM PNU120596 + 300 nM epibatidine application ([2]; 24 h @ 37° C.): 680 RFU | Signal amplitude with 10 μM PNU120596 + 300 nM epibatidine application ([2]; 24 h @ 37° C. + 24 h @ 30° C.): 1601 RFU | Signal amplitude with 10 μM PNU120596 + 300 nM epibatidine application [3]: 450 RFU | EC50 ([3]; read-out: EC50 (FIG. 10, FIG. 11)): 10 nM | EC50 ([3]; read-out: EC50 value): 5 nM

CN1CCCC1c1cccnc1 (stereo not drawn) [Nicotine]
EC50 [1]: 200 nM | EC50 ([3]; read-out: EC50 (FIG. 10, FIG. 11), orthosteric reference agonist, concentration response curve): 350 nM | EC50 ([3]; read-out: EC50 value, Revealed by co-application of PNU-120956): 400 nM

CC(=O)OCC[N+](C)(C)C [Acetylcholine]
EC50 [1]: 480 nM
